Read-outs that look alike come from different tables or passages of the source.
Tests used:
[1] = follow-up assay; ref Avlasevich et al., 2021; cited from earlier work
MN = conditions: cited from earlier work
[2] = test system: human lymphoblastoid TK6 cells; assay: TGx-DDI transcriptomic biomarker classification (TempO-Seq S1500+) and BMC modeling; conditions: for TGx-DDI summary classification: TK6 cells, 4H exposure; for TGx-DDI BMC potency ranking (bootstrapped median gene BMC): BMR 1 standard deviation, compounds with concordant positive calls; for TGx-DDI classification: overall call from 2-DC, PCA, NSC-PA, S9 condition as in Figure 1; for Strength / consistency of TGx-DDI response (text): across concentrations and the three statistical analyses
[3] = test system: human lymphoblastoid TK6 cells; assay: In vitro MicroFlow assay (flow cytometry-based micronucleus test); conditions: for MicroFlow summary classification (MN induction): TK6 cells, 4H exposure, 24-h sampling; for MicroFlow %MN response (text): positive: >2.5 fold-increase in %MN and p < 0.05 vs vehicle
[4] = test system: human lymphoblastoid TK6 cells; assay: MultiFlow DNA Damage assay (γH2AX, p53, p-H3, polyploidy); assay type: cell-based; conditions: for MultiFlow summary classification (call and MoA): TK6 cells, 4H and 24H sampling; for MultiFlow MoA classification: GEF-based call, in at least one S9 condition; for MultiFlow biomarkers with responses: fold-increase over solvent control
Method: Treated cells were gently resuspended and 25 µL/well was mixed thoroughly with the labeling solution. The plate was incubated for 30 min at room temperature shielded from light.
The γH2AX and p53 endpoints were measured based on their median fluorescence intensity (i.e., mean channel fluorescence or MCF) relative to the DMSO solvent control. The p-H3 and polyploidy endpoints were measured based on their frequencies among all events (i.e., all 2n–4n and polyploidy (8n) DNA content). The equations for calculating γH2AX shift, nuclear p53 shift, % polyploidy, and % p-H3 positive events are shown below.
Latex microspheres were used as counting beads to determine nuclear density.
Litron developed Global Evaluation Factors (GEF) to identify a biologically significant increase in select biomarker levels.
A clastogenic or aneugenic call required two successive concentrations that met or exceeded the GEFs in at least 2 of the 4 respective MoA biomarkers. Chemicals that met or exceeded two GEFs in a single non-cytotoxic concentration were designated as “weak” responses. In cases where both clastogen and aneugen biomarkers exceeded the GEF the MoA was considered pan-genotoxic. In cases where less than two biomarkers met the GEFs, the call was non-genotoxic.

[5] = test system: human lymphoblastoid TK6 cells; assay: Integrated NAM-based test strategy (TGx-DDI + MicroFlow + MultiFlow; ToxPi integration of BMCs); conditions: for ToxPi profile of multiplexed endpoint BMCs: six endpoints: TGx-DDI, MN, 4H/24H p53, 4H/24H ɣH2AX; for Integrated hazard conclusion: from TGx-DDI, MicroFlow and MultiFlow calls
[6] = test system: human lymphoblastoid TK6 cells; assay: Viability assessment (propidium iodide fluorescence, flow cytometry); conditions: TK6 cells, ± S9, quantified at 24 h via propidium iodide
%MN = test system: %MN; design: method as in SCCP, 2006; conditions: ref SCCP, 2006, cited from earlier work
[7] = test system: structural chromosomal aberrations; conditions: cited from earlier work; for In vitro mammalian chromosomal aberration test result (OECD 473): SCCS
[8] = +S9 (rat liver S9), 3 h recovery

Molecule | TGx-DDI summary classification ([2]; -S9) | TGx-DDI classification [2] | TGx-DDI summary classification [2, 8] | Strength / consistency of TGx-DDI response (text) [2] | MicroFlow summary classification (MN induction) ([3]; +S9) | MicroFlow summary classification (MN induction) ([3]; -S9) | MicroFlow %MN response (text) [3] | MultiFlow summary classification (call and MoA) ([4]; +S9) | MultiFlow summary classification (call and MoA) ([4]; -S9) | MultiFlow MoA classification [4] | MultiFlow biomarkers with responses [4] | Integrated hazard conclusion [5] | further results
carbonyl cyanide m-chlorphenyl hydrazone [CCCP] |  |  |  |  |  |  |  |  |  |  |  |  | MultiFlow classification [1]: non-genotoxicants; MicroFlow MN result (MN; known apoptogens, ref Avlasevich et al., 2021): induce MN
COc1cc([C@@H]2c3cc4c(cc3[C@@H](O[C@@H]3O[C@@H]5CO[C@@H](C)O[C@H]5[C@H](O)[C@H]3O)[C@H]3COC(=O)[C@H]23)OCO4)cc(OC)c1O [EPEG, Etoposide, reference compound] | + | DDI |  |  | + | + | significant fold-increases in %MN | + C | + C |  |  |  | TGx-DDI BMC potency ranking (bootstrapped median gene BMC) [2]: lowest median gene BMC; ToxPi profile of multiplexed endpoint BMCs [5]: most potent for five of the six endpoints examined
OC[C@@H](O)[C@@H](O)[C@H](O)[C@H](O)CO [DMANN, D-mannitol, reference compound] | - | non-DDI | - |  |  | - | not observed | - | - |  |  |  | Effect on cell viability [6]: no decrease in viability
C/C=C(/C)C(=O)O[C@H]1C(C)=C2[C@H]([C@@H]1OC(=O)CCCCCCC)[C@@](C)(OC(C)=O)C[C@H](OC(=O)CCC)[C@@]1(O)[C@H]2OC(=O)[C@@]1(C)O [thapsigargin] |  |  |  |  |  |  |  |  |  |  |  |  | MicroFlow MN result (MN): induce MN
COc1ccc(NCCO)cc1N [NSACB 7, 2-[(3-amino-4-methoxyphenyl)amino]ethanol] | + | DDI across all concentrations except the lowest | + | strongest responses | + | + |  | + C | + C | clastogens | 4H p53 and 4H ɣH2AX | genotoxic in vitro, causing DNA damage via a clastogenic MoA | In vitro micronucleus result (OECD 487) (%MN; with S9): statistically significant and biologically relevant increase in the frequency of %MN; In vitro micronucleus result (OECD 487) (%MN; without S9): equivocal; MicroFlow %MN response (text) ([3]; listed as 7): robust fold-increase in %MN with a clear concentration-response relationship; MicroFlow %MN response (text) ([3]; listed as NSACB #7): stronger %MN frequency in the +S9 condition at the highest concentration; Strength of MultiFlow biomarker response (text) [4]: more moderate responses
CCCOCC(C)OCC(C)O (stereo not drawn) [NSACB 10, 1-(1-methyl-2-propoxyethoxy)-2-propanol] |  |  |  |  |  |  |  |  |  |  |  | likely irrelevant positives in the MN test | Effect on cell viability [6]: did not impact viability up to the highest concentration of 10 mM

Further lines, with some results ahead:

TGx-DDI summary classification ([2]; -S9) | TGx-DDI classification [2] | TGx-DDI summary classification [2, 8] | Strength / consistency of TGx-DDI response (text) [2] | Molecule | MicroFlow summary classification (MN induction) ([3]; +S9) | MicroFlow summary classification (MN induction) ([3]; -S9) | MicroFlow %MN response (text) [3] | MultiFlow summary classification (call and MoA) ([4]; +S9) | MultiFlow summary classification (call and MoA) ([4]; -S9) | MultiFlow MoA classification [4] | MultiFlow biomarkers with responses [4] | Integrated hazard conclusion [5] | further results
 | DDI | + | weaker DDI responses | Cc1ccc(O)c(N)c1 [NSACB 2, 2-amino-4-methylphenol] | + | + | variable responses with a significant increase observed only at the highest concentration | + C | - | clastogens | 4H ɣH2AX and 24H p53 | genotoxic in vitro, causing DNA damage via a clastogenic MoA | Strength of MultiFlow biomarker response (text) [4]: most robust increases
 | DDI | + | weaker DDI responses | CCN(CC)c1cccc(O)c1 [NSACB 4, 3-diethylaminophenol] |  |  |  | + C/A | + C | pan-genotoxicant | clastogen biomarkers 4H p53 and 4H ɣH2AX, as well as aneugen marker 4H p-H3 and pan-genotoxic biomarker 24H p53 | genotoxic in vitro, causing DNA damage via a clastogenic MoA | 
 | non-DDI | - |  | COc1cc([N+](=O)[O-])ccc1O [NSACB 6, 2-methoxy-4-nitrophenol] | + | + | robust fold-increase in %MN with a clear concentration-response relationship | - | - | non-genotoxic | moderate to robust response increase in one of the aneugenic biomarkers (i.e., 4H p-H3) | likely irrelevant positives in the MN test | 
 | DDI | + | weaker DDI responses | Cc1cc(C)n(CO)n1 [NSACB 3, 3,5-dimethylpyrazole-1-methanol] | + | + | variable responses with a significant increase observed only at the highest concentration | + C | + C | clastogens | 4H p53 and 4H ɣH2AX | genotoxic in vitro, causing DNA damage via a clastogenic MoA | Strength of MultiFlow biomarker response (text) [4]: more moderate responses
+ |  | + | moderate DDI response | O=[N+]([O-])c1cc(O)ccc1NCCCO [NSACB 9, 4-[(3-hydroxypropyl)amino]-3-nitrophenol] | + | + | robust fold-increase in %MN with a clear concentration-response relationship | + C | + C | clastogens | 4H and 24H ɣH2AX | genotoxic in vitro, causing DNA damage via a clastogenic MoA | Chromosomal aberration test result ([7]; in the presence of S9, ref SCCP, 2007): induced structural chromosomal aberrations; In vitro mammalian chromosomal aberration test result (OECD 473) ([7]; ref SCCP, 2007, 2013): positive; Chromosomal aberration test result ([7]; without S9, ref SCCP, 2007): equivocal; Strength of MultiFlow biomarker response (text) ([4]; listed as 9): most robust increases; Strength of MultiFlow biomarker response (text) ([4]; listed as NSACB #9): strong fold-increases in clastogenic biomarkers (i.e., 4H and 24H ɣH2AX) in both S9 conditions
 | DDI across all concentrations | + | strongest responses | Nc1cccc(N)n1 [NSACB 5, 2,6-diaminopyridine] | + | + | robust fold-increase in %MN with a clear concentration-response relationship | + C | + C | clastogens | 4H p53 and 4H ɣH2AX | genotoxic in vitro, causing DNA damage via a clastogenic MoA | Chromosomal aberration test result ([7]; continuous treatment (24H) without S9, ref SCCS, 2013): clastogenic; In vitro mammalian chromosomal aberration test result (OECD 473) ([7]; ref SCCP, 2007, 2013): positive; Chromosomal aberration test result ([7]; short-term (6H) treatment with S9, ref SCCS, 2013): clastogenic; TGx-DDI BMC potency ranking (bootstrapped median gene BMC) [2]: greatest median gene BMC; Strength of MultiFlow biomarker response (text) ([4]; listed as 5): most robust increases; Strength of MultiFlow biomarker response (text) ([4]; listed as NSACB #5): strong response in clastogen-related biomarkers in both S9 conditions; ToxPi profile of multiplexed endpoint BMCs [5]: almost no slices protruding from the center

Source: publication PMC9899896, “Application of a new approach methodology (NAM)-based strategy for genotoxicity assessment of data-poor compounds” (Frontiers in Toxicology, 2023)
